Reference: patent publication US10294202B2, “Pyrrolidinones as herbicides” (FMC Corporation, priority 2013, dated 2019)

Key:
ryegrass, Italian = experiment: Test D pre-/postemergence herbicide test; assay type: in vivo, Lolium multiflorum; conditions: for Plant response rating: Postemergence, Ryegrass, Italian, scale 0 to 100; for Plant response rating, Ryegrass, Italian: Preemergence, scale 0 to 100 (0 no effect, 100 complete control)
Excerpt: (§1) Seeds of plant species selected from bluegrass (annual bluegrass, Poa annua), blackgrass (Alopecurus myosuroides), canarygrass (littleseed canarygrass, Phalaris minor), chickweed (common chickweed, Stellaria media), galium (catchweed bedstraw, Galium aparine), bromegrass, downy (downy bromegrass, Bromus tectorum), field poppy (Papaver rhoeas), field violet (Viola arvensis), foxtail, green (green foxtail, Setaria viridis), deadnettle (henbit deadnettle, Lamium amplexicaule), ryegrass, Italian (Italian ryegrass, Lolium multiflorum), kochia (Kochia scoparia), lambsquarters (Chenopodium album), oilseed rape (Brassica napus), pigweed (Amaranthus retroflexus), chamomile (scentless chamomile, Matricaria inodora), Russian thistle (Salsola kali), speedwell (bird's-eye speedwell, Veronica persica), barley, spring (spring barley, Hordeum vulgare), wheat, spring (spring wheat, Triticum aestivum), buckwheat, wild (wild buckwheat, Polygonum convolvulus), mustard, wild (wild mustard, Sinapis arvensis), oat, wild (wild oat, Avena fatua), radish, wild (wild radish, Raphanus raphanistrum), […]), barley, winter (winter barley, Hordeum vulgare), and wheat, winter (winter wheat, Triticum aestivum) were planted into a silt loam soil and treated preemergence with test chemicals formulated in a non-phytotoxic solvent mixture which included a surfactant. At the same time, these species were planted in pots containing Redi-Earth® planting medium (Scotts Company, 14111 Scottslawn Road, Marysville, Ohio 43041) comprising spaghnum peat moss, vermiculite, wetting agent and starter nutrients and treated with postemergence applications of the test chemicals formulated in the same manner. Plants ranged in height from 2 to 18 cm (1- to 4-leaf stage). Treated plants and controls were maintained in a controlled growth environment for 7 to 21 days after which time all species were compared to controls and visually evaluated. Plant response ratings, summarized in Table D, are based on a scale of 0 to 100 where 0 is no effect and 100 is complete control. A dash (-) response means no test result.

oat, wild = experiment: Test D pre-/postemergence herbicide test; assay type: in vivo, Avena fatua; conditions: for Plant response rating: Postemergence, Oat, Wild, scale 0 to 100; for Plant response rating, Oat, Wild: Preemergence, scale 0 to 100 (0 no effect, 100 complete control)
Excerpt: as §1

crabgrass, Brazil = experiment: Test E preemergence herbicide test; assay type: in vivo, Digitaria horizontalis; design: key: 0 = no effect, 100 = complete control
Excerpt: Seeds of plant species selected from corn (Zea mays), soybean (Glycine max), velvetleaf (Abutilon theophrasti), lambsquarters (Chenopodium album), wild poinsettia (Euphorbia heterophylla), pigweed, palmer (palmer pigweed, Amaranthus palmeri), waterhemp (common waterhemp, Amaranthus rudis), surinam grass (Brachiaria decumbens), crabgrass, large (large crabgrass, Digitaria sanguinalis), crabgrass, Brazil (Brazilian crabgrass, Digitaria horizontalis), panicum, fall (fall panicum, Panicum dichotomiflorum), foxtail, giant (giant foxtail, Setaria faberii), foxtail, green (green foxtail, Setaria viridis), goosegrass (Eleusine indica), johnsongrass (Sorghum halepense), ragweed (common ragweed, Ambrosia elatior), barnyardgrass (Echinochloa crus-galli), sandbur (southern sandbur, Cenchrus echinatus), arrowleaf […] rhombifolia), ryegrass, Italian (Italian ryegrass, Lolium multiflorum), dayflower, VA (Virginia dayflower, Commelina virginica), field bindweed (Convolvulus arvensis), morningglory (Ipomoea coccinea), nightshade (eastern black nightshade, Solanum ptycanthum), kochia (Kochia scoparia), nutsedge, yellow (yellow nutsedge, Cyperus esculentus), cocklebur (common cocklebur, Xanthium strumarium), smartweed (ladysthumb smartweed, Polygonum Persicaria) and beggarticks (hairy beggarticks, Bidens pilosa), were planted into a silt loam soil and treated preemergence with test chemicals formulated in a non-phytotoxic solvent mixture which included a surfactant. Treated plants and controls were maintained in a greenhouse for 21 days, after which time all species were compared to controls and visually evaluated. Plant response ratings, summarized in Table E, are based on a scale of 0 to 100 where 0 is no effect and 100 is complete control. A dash (-) response means no test result.

barley (winter barley) = experiment: Test C postemergence herbicide test; assay type: in vivo, Hordeum vulgare
Excerpt: At the same time, plants selected from these crop and weed species and also barley (winter barley, Hordeum vulgare), […]), chickweed (common chickweed, Stellaria media), deadnettle (henbit deadnettle, Lamium amplexicaule), and canarygrass (littleseed canarygrass, Phalaris minor) were planted in pots containing Redi-Earth® planting medium (Scotts Company, 14111 Scottslawn Road, Marysville, Ohio 43041) comprising spaghnum peat moss, vermiculite, wetting agent and starter nutrients and treated with postemergence applications of test chemicals formulated in the same manner. Plants ranged in height from 2 to 18 cm (1- to 4-leaf stage) for postemergence treatments. Treated plants and controls were maintained in a greenhouse for 13 to 15 days, after which time all species were compared to controls and visually evaluated. Plant response ratings, summarized in Table C, are based on a scale of 0 to 100 where 0 is no effect and 100 is complete control. A dash (-) response means no test result.

[1] = 31 g ai/ha, scale 0 (no effect) to 100 (complete control)
[2] = 62 g ai/ha, scale 0 to 100 (0 no effect, 100 complete control)
[3] = 125 g ai/ha, scale 0 to 100 (0 no effect, 100 complete control)
[4] = 250 g ai/ha, scale 0 to 100 (0 no effect, 100 complete control)

O=C1NCC(c2ccc(F)c(F)c2)C1C(=O)Nc1cccc(F)c1 (racemic) [Compound 12]
20: Plant response rating (oat, wild; 250 g ai/ha)
15: Plant response rating (ryegrass, Italian; 250 g ai/ha) | Plant response rating (oat, wild; 125 g ai/ha)
0: Plant response rating (ryegrass, Italian; 16 g ai/ha) | Plant response rating (ryegrass, Italian; 31 g ai/ha) | Plant response rating (ryegrass, Italian; 62 g ai/ha) | Plant response rating, Ryegrass, Italian (ryegrass, Italian; 31 g ai/ha) | Plant response rating, Ryegrass, Italian (ryegrass, Italian; 62 g ai/ha) | Plant response rating, Ryegrass, Italian (ryegrass, Italian; 125 g ai/ha) | Plant response rating, Ryegrass, Italian (ryegrass, Italian; 250 g ai/ha) | Plant response rating, Ryegrass, Italian (ryegrass, Italian; 16 g ai/ha) | Plant response rating (oat, wild; 16 g ai/ha) | Plant response rating (oat, wild; 31 g ai/ha) | Plant response rating, Oat, Wild (oat, wild; 31 g ai/ha) | Plant response rating, Oat, Wild (oat, wild; 62 g ai/ha) | Plant response rating, Oat, Wild (oat, wild; 125 g ai/ha) | Plant response rating, Oat, Wild (oat, wild; 250 g ai/ha) | Plant response rating, Oat, Wild (oat, wild; 16 g ai/ha)
10: Plant response rating (ryegrass, Italian; 125 g ai/ha) | Plant response rating (oat, wild; 62 g ai/ha)

O=C1NCC(c2ccc(F)cc2)C1C(=O)Nc1ccccc1F (racemic) [Compound 16]
25: Plant response rating, Crabgrass, Brazil (crabgrass, Brazil; 16 g ai/ha) | Plant response rating, Crabgrass, Brazil (crabgrass, Brazil; 31 g ai/ha)
98: Plant response rating, Crabgrass, Brazil (crabgrass, Brazil; 250 g ai/ha)
65: Plant response rating, Crabgrass, Brazil (crabgrass, Brazil; 62 g ai/ha)
80: Plant response rating, Crabgrass, Brazil (crabgrass, Brazil; 125 g ai/ha)

O=C1NCC(c2cc(F)c(F)c(F)c2)C1C(=O)Nc1ccccc1C(F)(F)F (racemic) [Compound 33]
0: Plant response rating (ryegrass, Italian; 16 g ai/ha) | Plant response rating (ryegrass, Italian; 31 g ai/ha) | Plant response rating (ryegrass, Italian; 62 g ai/ha) | Plant response rating (ryegrass, Italian; 125 g ai/ha) | Plant response rating (ryegrass, Italian; 250 g ai/ha) | Plant response rating (oat, wild; 16 g ai/ha) | Plant response rating (oat, wild; 31 g ai/ha) | Plant response rating (oat, wild; 62 g ai/ha) | Plant response rating (oat, wild; 125 g ai/ha) | Plant response rating (oat, wild; 250 g ai/ha)

O=C1NCC(c2cc(F)c(F)c(F)c2)C1C(=O)Nc1ccccc1F (racemic) [Compound 34]
0: Plant response rating, Barley (barley (winter barley); [1]) | Plant response rating, Barley (barley (winter barley); [2]) | Plant response rating, Barley (barley (winter barley); [3]) | Plant response rating, Barley (barley (winter barley); [4]) | Plant response rating (ryegrass, Italian; 16 g ai/ha) | Plant response rating (ryegrass, Italian; 31 g ai/ha) | Plant response rating (ryegrass, Italian; 62 g ai/ha) | Plant response rating (ryegrass, Italian; 125 g ai/ha) | Plant response rating (ryegrass, Italian; 250 g ai/ha) | Plant response rating (oat, wild; 16 g ai/ha) | Plant response rating (oat, wild; 31 g ai/ha) | Plant response rating (oat, wild; 62 g ai/ha) | Plant response rating (oat, wild; 125 g ai/ha) | Plant response rating (oat, wild; 250 g ai/ha)

O=C1NCC(c2ccccc2)C1C(=O)Nc1ccccc1F (racemic) [Compound 81]
0: Plant response rating, Barley (barley (winter barley); [1]) | Plant response rating, Barley (barley (winter barley); [2]) | Plant response rating, Barley (barley (winter barley); [3]) | Plant response rating, Barley (barley (winter barley); [4])

O=C1NCC(c2cccc(C(F)(F)F)c2)C1C(=O)Nc1ccc(F)cc1F (racemic) [Compound 207]
15: Plant response rating, Ryegrass, Italian (ryegrass, Italian; 250 g ai/ha)
20: Plant response rating, Oat, Wild (oat, wild; 250 g ai/ha)
0: Plant response rating, Ryegrass, Italian (ryegrass, Italian; 31 g ai/ha) | Plant response rating, Oat, Wild (oat, wild; 31 g ai/ha) | Plant response rating, Oat, Wild (oat, wild; 62 g ai/ha)
5: Plant response rating, Ryegrass, Italian (ryegrass, Italian; 62 g ai/ha) | Plant response rating, Ryegrass, Italian (ryegrass, Italian; 125 g ai/ha) | Plant response rating, Oat, Wild (oat, wild; 125 g ai/ha)

O=C1NCC(c2cccc(Br)c2)C1C(=O)Nc1ccccc1F (stereo not drawn) [Compound 66]
98: Plant response rating, Crabgrass, Brazil (crabgrass, Brazil; 125 g ai/ha) | Plant response rating, Crabgrass, Brazil (crabgrass, Brazil; 250 g ai/ha)
95: Plant response rating, Crabgrass, Brazil (crabgrass, Brazil; 62 g ai/ha)
85: Plant response rating, Crabgrass, Brazil (crabgrass, Brazil; 16 g ai/ha) | Plant response rating, Crabgrass, Brazil (crabgrass, Brazil; 31 g ai/ha)

O=C1NCC(c2ccc(C(F)(F)F)cc2)C1C(=O)Nc1ccc(F)c(F)c1F (stereo not drawn) [Compound 232]
98: Plant response rating, Crabgrass, Brazil (crabgrass, Brazil; 62 g ai/ha) | Plant response rating, Crabgrass, Brazil (crabgrass, Brazil; 125 g ai/ha) | Plant response rating, Crabgrass, Brazil (crabgrass, Brazil; 250 g ai/ha)
95: Plant response rating, Crabgrass, Brazil (crabgrass, Brazil; 31 g ai/ha)

O=C1NCC(c2cccc(C(F)(F)F)c2)C1C(=O)Nc1cccc(F)c1F (stereo not drawn) [Compound 241]
50: Plant response rating, Ryegrass, Italian (ryegrass, Italian; 250 g ai/ha)
20: Plant response rating, Ryegrass, Italian (ryegrass, Italian; 62 g ai/ha) | Plant response rating, Ryegrass, Italian (ryegrass, Italian; 125 g ai/ha) | Plant response rating, Oat, Wild (oat, wild; 125 g ai/ha)
55: Plant response rating, Oat, Wild (oat, wild; 250 g ai/ha)
15: Plant response rating, Ryegrass, Italian (ryegrass, Italian; 31 g ai/ha) | Plant response rating, Oat, Wild (oat, wild; 31 g ai/ha) | Plant response rating, Oat, Wild (oat, wild; 62 g ai/ha)
